Measured values: BindingDB's records for doi:10.1021/jm00207a020 (1978)

Target: Adenylate cyclase type 1 (Rattus norvegicus, UniProt D4A3N4)
Assay: Inhibition of dopamine-sensitive rat brain adenylyl cyclase activity assessed as cAMP level

Adenylate cyclase type 1, sequence (D4A3N4 whole entry): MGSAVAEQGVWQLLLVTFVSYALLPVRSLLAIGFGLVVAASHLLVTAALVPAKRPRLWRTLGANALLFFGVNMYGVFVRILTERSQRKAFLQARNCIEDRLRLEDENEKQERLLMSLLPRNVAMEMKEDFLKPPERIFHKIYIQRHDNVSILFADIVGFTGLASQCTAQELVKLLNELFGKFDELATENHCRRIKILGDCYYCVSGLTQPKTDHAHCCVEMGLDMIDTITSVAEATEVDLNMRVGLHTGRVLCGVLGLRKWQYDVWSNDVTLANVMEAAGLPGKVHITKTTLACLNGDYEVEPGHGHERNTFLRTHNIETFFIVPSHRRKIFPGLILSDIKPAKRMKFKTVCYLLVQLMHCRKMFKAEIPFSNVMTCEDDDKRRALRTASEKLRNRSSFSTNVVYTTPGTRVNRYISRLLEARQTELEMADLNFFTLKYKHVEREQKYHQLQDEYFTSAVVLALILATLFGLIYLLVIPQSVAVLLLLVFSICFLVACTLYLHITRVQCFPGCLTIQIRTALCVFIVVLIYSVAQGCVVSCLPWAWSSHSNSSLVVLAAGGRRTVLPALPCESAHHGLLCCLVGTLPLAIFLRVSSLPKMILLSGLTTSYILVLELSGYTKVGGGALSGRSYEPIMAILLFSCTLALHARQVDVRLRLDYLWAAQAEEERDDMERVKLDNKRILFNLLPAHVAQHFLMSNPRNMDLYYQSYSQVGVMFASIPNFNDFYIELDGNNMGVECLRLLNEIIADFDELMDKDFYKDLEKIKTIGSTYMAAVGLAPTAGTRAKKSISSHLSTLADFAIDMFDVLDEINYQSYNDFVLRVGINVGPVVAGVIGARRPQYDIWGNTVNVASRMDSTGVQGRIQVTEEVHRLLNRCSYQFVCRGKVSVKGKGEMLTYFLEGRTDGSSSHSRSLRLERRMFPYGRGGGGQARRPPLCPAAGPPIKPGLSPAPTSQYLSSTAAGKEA

SMILES | IC50
c1ccc(C2=Nc3ccccc3N=C(N3CCC(c4ccccc4)CC3)C2)cc1 | 4.5 nM
CN1CCN(C2=Nc3cc(Cl)ccc3Nc3ccccc32)CC1 [8-Chloro-11-(4-methyl-piperazin-1-yl)-5H-dibenzo[b,e][1,4]diazepine(Clopazine)] | 1.4 nM
